This assay concerns KERtr cells. Nature of the assay: Keratinocyte proliferation assay. The format is cell-based. As to conditions: Homo sapiens, 72 hr, BrdU incorporation, read-out: Kera. Prolif. IC50. As to the method: 5. The Keratinocyte Proliferation Assay
This Assay is indicative for the treatment of psoriasis.
(5) The Keratinocyte Proliferation Assay:
KERtr cells (Human skin keratinocyte transformed with a retrovirus vector, obtained from ATCC) were plated in 96-well flat-bottomed plates (3000 cells/well) in 100 µl keratinocyte serum free medium supplemented with bovine pituitary extract in the absence of EGF (Life Technologies, Rockville, Md.) and incubated at 37° C. for two days. The cells were treated with various concentrations of VDR ligands (ten-fold serial dilution from 10,000 nM to 0.1 nM in triplicate), dissolved in 100 µl keratinocyte serum free medium supplemented with bovine pituitary extract in the absence of EGF and incubated at 37° C. for 72 hr. BrdU (5-bromo-2′-deoxyuridine) incorporation was analyzed as a measure of DNA replication (Cell proliferation ELISA kit, Roche Diagnostics, Indianapolis, Ind.) and absorbance was measured at 405 nm. Potency values (IC50) values were determined as the concentration (nM) of compound that elicited a half-maximal response.
A general note: Dividing cells build labelled thymidine or BrdU into new DNA.

The structures appear in SMILES notation.

In general, IC50 refers to the point on the concentration scale where inhibition reaches its midpoint.

For the compound `CCC(O)(CC)COc1ccc(C(CC)(CC)c2ccc(C(=O)NCC(=O)O)c(C)c2)cc1C` [Ex. 3, (4-{1-ethyl-1-[4-(2-ethyl-2-hydroxy-butoxy)-3-methyl-phenyl]-propyl}-2-methyl-benzoylamino)-acetic acid], the IC50 amounted to 121 nM.

The values above are taken from patent US7595345B2, “Vitamin D receptor modulators” (Eli Lilly and Company, priority 2003, dated 2009).
